Read-outs that look alike come from different tables or passages of the source.
Assays:
[1] = tested on: dogs; assay: Oxygen transport and regional tissue oxygenation during graded induced hypotension; type: in vivo, dog; settings: graded hypotension to MAP 30 mmHg
Experimental: Arterial and pulmonary artery (Swan-Ganz) catheters were placed via a femoral cut down. […] Another PO2 sensor probe was placed on the surface of the liver, kidney, subcutaneous, and muscle of the chest wall through a small skin incision. Referring to FIG. 6, the dogs were divided into three groups: (a) hemorrhagic (n=7), (b) isoflurane (n=8), and (c) ATP (n=8). […] The following were measured and/or calculated: […] The data were analyzed using ANOVA with the Bonferroni t-test and unpaired t-test where appropriate, accepting p<0.05 as significant.

[2] = tested on: rabbits; assay: Hypothermia induced under adenosine or ATP infusion; type: in vivo, rabbit
Experimental: The hypothermic and rewarming effects of an adenosine compound are tested in experimental animals prepared similarly as in the rabbit model described herein to test for anesthetic effects, except that the body temperature is allowed to fall. In animal studies (rabbit) where the room has a temperature of approximately 22° C., the body temperature will fall from a norm of about 39° C. to about 32° C. in about three hours. If the animal is cooled further with ice bags, a temperature of approximately 22° C. can be achieved in three hours without cardiovascular decompensation. Rewarming is done with the aid of a thermal blanket and heat lamp. The effective dosages of adenosine compound ranged from about 100 μg/kg/min to about 5000 μg/kg/min.
Referring to FIG. 7, the body temperature versus time plots are shown for eight different experiments. In Run 1, adenosine 500 μg/kg/min was administered intravenously to rabbits for six hours. The administration was then stopped and the body temperatures were allowed to recover.
In Run 2, ATP 500 μg/kg/min was administered intravenously for six hours. At that time, the body temperature was 31.5° C. The animal's body temperature was allowed to recover by applying external heating for four hours when (at the arrow) the external heating was removed and the temperature was allowed to fall. The body temperature again fell.
In Run 3, ATP was administered intravenously. The body temperature stabilized after ten hours at 32.5° C.
In Runs 4, 5, and 6, adenosine was administered to rabbits until the body temperature reached a constant value. In Run 4, after five hours, the body temperature stabilized at 33° C. In Run 6, after six hours, the temperature stabilized at 31.5° C.
In Run 7, five unmedicated New Zealand rabbits were anesthetized with halothane in O2 using a face mask. The ear vein was cannulated with a 22 gauge plastic catheter for drug infusion. 500 μg/kg/min to 5500 μ/kg/min adenosine was administered IV. Body temperature was monitored through a rectal thermometer. The body temperature started at approximately 38.5° C. After the application of ice bags, the temperature dropped approximately 5.5° C./hr until a minimum body temperature of approximately 22° C. was achieved.
The ice bags were removed and external heating applied. The body temperature of all rabbits returned to normal, and the rabbits were apparently normal.
In a comparison, in Run 8, six rabbits were anesthetized with isofluane and external cooling applied.

[3] = tested on: experimental animals; assay: Lethal to effective dose margin; type: in vivo; settings: for lethal dose relative to the dose required for analgesia: in vivo
Experimental: In contrast to other conventional anesthetics, the adenosine compounds are useful over a wide dose range. For example, adenosine is active over a as range of between 1 to 5000 μg/kg/min. In contrast, conventional anesthetic agents, such as isoflurane, have narrow effective ranges. The fatal to effective anesthetic ratio of isoflurane is 3.02±0.13. Other reports indicate that isoflurane has about 1.88 times the safety range of halothane. […] Of course, the anesthesiologist will err on the side of administering too little and, thereby, runs the risk of underdosing the patient. This need for caution may result in an inadequately anesthetized (subanesthetized) patient during the surgical procedure.
One great advantage observed with adenosine compounds is the wide margin for error on effective therapeutic range. This advantage is exemplified by adenosine where the lethal dose is about 100 times the dose required for analgesia, and ATP where the lethal dose is greater than 150 times the amount required for analgesia.

[4] = tested on: surgical patients; assay: ATP infusion to attenuate surgical stress response in patients
[5] = tested on: surgical patients; assay: ATP anesthesia replacing enflurane or N2O in patients undergoing oral surgery
[6] = tested on: rabbits; assay: Replacement of enflurane anesthesia by ATP infusion, electrical tail stimulation and tail clamp; settings: for DBP / HR / PaCO2 / PaO2 / RR (Respiratory Rate) / SBP: N2O 60%, ENF 2.0-[…], ATP 362 ± 164 μg/kg/min, Mean ± SD, n = 6
[7] = Anesthesia score chart comparing anesthetic agents for the four components of anesthesia (Table 1); parameters: key: 0 no effect; 1 minimal; 2 mostly; 3 maximal; settings: for Antinociception (analgesia, less pain perception) / Inhibition of Stress (autonomic responses: blood pressure, heart rate; endocrine and metabolic responses) / Muscle Relaxation / Sleep (unconsciousness, amnesia, sedation): Anesthesia Score 0 to 3; for TOTALS of Anesthesia Score: sum of the four components
[8] = tested on: New Zealand white rabbits; assay: Electrical tail stimulation screening: head lift (hypnotic) and escape movement (analgesic) thresholds; type: in vivo, rabbit; settings: for EM (purposeful escape movement, analgesic) threshold responses / HL (head lift, hypnotic) threshold responses: increasing doses, 60% N2O baseline sedation, FIG. 1
[9] = tested on: rabbits; settings: rabbit, in vivo
[10] = tested on: New Zealand white rabbits
[11] = tested on: rabbits; assay: Analgesic activity of adenosine compared with morphine sulfate, tail/ear clamp and electrical stimulation
[12] = GROUP A spontaneously breathing, ATP infusion time 60 min, n = 18, mean
[13] = GROUP A spontaneously breathing, ATP infusion time 120 min, n = 16, mean
[14] = GROUP A spontaneously breathing, ATP infusion time 180 min, n = 3, mean
[15] = GROUP A spontaneously breathing, ATP infusion time 240 min, n = 1
[16] = GROUP B mechanically breathing, ATP infusion time 60 min, n = 14, mean
[17] = GROUP B mechanically breathing, ATP infusion time 120 min, n = 10, mean
[18] = GROUP B mechanically breathing, ATP infusion time 180 min, n = 5, mean
[19] = GROUP B mechanically breathing, ATP infusion time 240 min, n = 4, mean
[20] = Run 7, 500 to 5500 μg/kg/min IV, ice bags
[21] = under 60% N2O, n = 6, Mean ± SD

Structure (SMILES): Nc1ncnc2c1ncn2[C@@H]1O[C@H](COP(=O)(O)OP(=O)(O)OP(=O)(O)O)[C@@H](O)[C@H]1O [ATP, adenosine triphosphate]
- O2 supply/demand ratio [1]: positive O2 supply/demand ratio in all stages of hypotension
- body temperature ([2]; Run 2, 500 μg/kg/min intravenously for six hours): 31.5 °C
- body temperature at which it stabilized ([2]; Run 3, intravenously, after ten hours): 32.5 °C
- deaths on overdose ([3]; enormous overdoses): no experimental animals died
- lethal dose relative to the dose required for analgesia [3]: greater than 150 times
- BE [4, 12]: −3.3
- Hb [4, 12]: 12.6
- PCO2 [4, 12]: 44.1
- PO2 [4, 12]: 140.9
- pH (arterial blood gas) [4, 12]: 7.33
- BE [4, 13]: −3.2
- Hb [4, 13]: 12.8
- PCO2 [4, 13]: 41.9
- PO2 [4, 13]: 137.9
- pH (arterial blood gas) [4, 13]: 7.34
- BE [4, 14]: −3.0
- Hb [4, 14]: 11.9
- PCO2 [4, 14]: 39.9
- PO2 [4, 14]: 165.5
- pH (arterial blood gas) [4, 14]: 7.36
- BE [4, 15]: −4.1
- Hb [4, 15]: 10.7
- PCO2 [4, 15]: 31.0
- PO2 [4, 15]: 115.1
- pH (arterial blood gas) [4, 15]: 7.39
- BE [4, 16]: −4.2
- Hb [4, 16]: 11.7
- PCO2 [4, 16]: 40.2
- PO2 [4, 16]: 140.3
- pH (arterial blood gas) [4, 16]: 7.34
- BE [4, 17]: −4.8
- Hb [4, 17]: 11.2
- PCO2 [4, 17]: 40.1
- PO2 [4, 17]: 142.6
- pH (arterial blood gas) [4, 17]: 7.33
- BE [4, 18]: −5.2
- Hb [4, 18]: 11.8
- PCO2 [4, 18]: 41.6
- PO2 [4, 18]: 130.4
- pH (arterial blood gas) [4, 18]: 7.32
- BE [4, 19]: −5.4
- Hb [4, 19]: 11.7
- PCO2 [4, 19]: 45.4
- PO2 [4, 19]: 130.1
- pH (arterial blood gas) [4, 19]: 7.288
- Intra-operative urine output ([4]; Group A, spontaneous ventilation, n=20): 58.7 (±43.3) ml/hr
- Intra-operative urine output ([4]; Group B, mechanically ventilated, n=14): 71.8 (±44.6) ml/hr
- emergence from anesthesia ([4]; after discontinuation of N2O and ATP): all patients emerged from anesthesia smoothly
- cardiovascular and neurobehavioral responses to surgery ([4]; continuous infusion in combination with N2O): effectively inhibited
- ENF requirement ([4]; continuous infusion of ATP): markedly reduced
- hemodynamic and respiratory functions ([4]; during ATP infusion): well maintained
- ATP infusion dose titrated until ENF or N2O was completely replaced ([5]; 14 patients, Mean ± SD): 108 ± 21 µg/kg/min
- Urine output ([5]; 14 patients, Mean ± SD): 111 ± 16 mL/h
- ventilatory or blood gas deterioration ([5]; during ATP infusion in spontaneously breathing patients): No ventilatory or blood gas deterioration was seen
- purposeful escape movements on electrical tail stimulation ([6]; FIG. 4): purposeful escape movements decreased
- analgesic effect after the infusion had stopped ([6]; IV ATP): selective analgesic effect persisted
- DBP [6]: 83 ± 16 mmHg
- HR [6]: 278 ± 26 bpm
- PaCO2 [6]: 22 ± 3 mmHg
- PaO2 [6]: 145 ± 24 mmHg
- RR (Respiratory Rate) [6]: 81 ± 14 bpm
- SBP [6]: 112 ± 20 mmHg

Structure (SMILES): FC(F)OC(F)(F)C(F)Cl (stereo not shown) [ENF, enflurane, reference compound]
- Antinociception (analgesia, less pain perception) [7]: 1
- Inhibition of Stress (autonomic responses: blood pressure, heart rate; endocrine and metabolic responses) [7]: 1
- Muscle Relaxation [7]: 1
- Sleep (unconsciousness, amnesia, sedation) [7]: 3
- TOTALS of Anesthesia Score [7]: 6
- DBP [6]: 49 ± 18 mmHg
- HR [6]: 255 ± 33 bpm
- PaCO2 [6]: 25 ± 1 mmHg
- PaO2 [6]: 148 ± 16 mmHg
- RR (Respiratory Rate) [6]: 72 ± 19 bpm
- SBP [6]: 69 ± 22 mmHg
- ENF level that completely inhibits responses to tail clamp ([6]; under 60% N2O): 2-2.5%

Structure (SMILES): [N-]=[N+]=O [Nitrous Oxide, nitrous oxide]
- Antinociception (analgesia, less pain perception) [7]: 1
- Inhibition of Stress (autonomic responses: blood pressure, heart rate; endocrine and metabolic responses) [7]: 1
- Muscle Relaxation [7]: 0
- Sleep (unconsciousness, amnesia, sedation) [7]: 1
- TOTALS of Anesthesia Score [7]: 3

Structure (SMILES): Nc1ncnc2c1ncn2[C@@H]1O[C@H](CO)[C@@H](O)[C@H]1O [adenosine]
- drug accumulation or respiratory depression ([8]; continuous infusion for prolonged times): did not cause drug accumulation or respiratory depression
- EM (purposeful escape movement, analgesic) threshold responses [8]: elevated EM responses
- HL (head lift, hypnotic) threshold responses [8]: remained low
- hemodynamic responses to noxious stimulation ([8]; rabbit, in vivo): effectively blocked
- respiratory and blood gas effects ([8]; spontaneously breathing rabbits): maintained normal respiratory and blood gas parameters
- body temperature at which it stabilized ([2]; Run 4, after five hours): 33 °C
- body temperature at which it stabilized ([2]; Run 6, after six hours): 31.5 °C
- minimum body temperature achieved [2, 20]: approximately 22 °C
- rate of body temperature drop [2, 20]: approximately 5.5 ° C./hr
- survival during body temperature lowering ([2]; external cooling, Run 7 (five rabbits), Run 8 (six rabbits)): All five rabbits survived
- shivering during body temperature lowering ([2]; external cooling, Run 7, Run 8): no shivering or other apparent discomfort was observed
- lethal dose relative to the dose required for analgesia [3]: about 100 times
- BP (Systolic BP) [9]: 101 ± 19 mmHg
- HR [9]: 230 ± 24 bpm
- PaCO2 [9]: 25 ± 4 mmHg
- PaO2 [9]: 126 ± 8 mmHg
- RR (Respiratory Rate) [9]: 85 ± 19 bpm
- reduction of the response to the noxious stimulation ([10]; intrathecal administration): as effective as intrathecal fentanyl
- Δ HR ([10]; rabbit, in vivo): −22 ± 5 bpm
- Δ MAP ([10]; rabbit, in vivo): −4 ± 5 mmHg
- Δ PaCO2 ([10]; rabbit, in vivo): −6.8 ± 2.1 mmHg
- Δ PaO2 ([10]; rabbit, in vivo): +10 ± 14
- Δ RR ([10]; rabbit, in vivo): −4 ± 10 bpm
- dose that completely suppressed the responses to both kinds of stimulation (ED90) ([11]; under 60% N2O, infusion, n = 6): 188 ± 20 µg/kg/min

Structure (SMILES): Cn1c(=O)c2[nH]cnc2n(C)c1=O [aminophylline, reference compound]
- reversal of sustained analgesia after discontinuation of ATP ([6]; IV aminophylline): partially reversed
- reversal of adenosine induced analgesia ([11]; aminophylline 5-10 mg/kg): consistently reversed

Structure (SMILES): FC(F)(F)C(Cl)Br (stereo not shown) [halothane]
- Antinociception (analgesia, less pain perception) [7]: 1
- Inhibition of Stress (autonomic responses: blood pressure, heart rate; endocrine and metabolic responses) [7]: 1
- Muscle Relaxation [7]: 1
- Sleep (unconsciousness, amnesia, sedation) [7]: 3
- TOTALS of Anesthesia Score [7]: 6
- EM (purposeful escape movement, analgesic) threshold responses [8]: consistently elevated
- HL (head lift, hypnotic) threshold responses [8]: consistently elevated

Structure (SMILES): CN1CC[C@]23c4c5ccc(O)c4O[C@H]2[C@@H](O)C=C[C@H]3[C@H]1C5.O=S(=O)(O)O [morphine sulfate]
- suppression of responses to stimulation ([11]; titrated IV to 2 mg/kg, under 60% N2O): no animal had complete suppression of all responses
- BP (Systolic BP) [11, 21]: 105 ± 14 mmHg
- HR [11, 21]: 242 ± 72 bpm
- PaCO2 [11, 21]: 31 ± 3 mmHg
- PaO2 [11, 21]: 123 ± 14 mmHg
- RR (Respiratory Rate) [11, 21]: 47 ± 16 bpm

From patent US6642209B1, “Use of adenosine compounds to alleviate or normalize pathologically hyperexcited sensory nerve function in a human patient” (priority 1990, dated 2003)
